The record followed here is patent US9034831B2, “Pharmaceutical composition for a hepatitis C viral protease inhibitor” (Boehringer Ingelheim International GmbH, priority 2009, dated 2015).

The nature of this data set: Solubility of drug substance in the compositions as a function of temperature. The format is physicochemical. The conditions noted are these: in the compositions of the invention.

Structures can show the parent of a compound that is named as a salt.

As for `C=C[C@@H]1C[C@]1(NC(=O)[C@@H]1C[C@@H](Oc2cc(-c3csc(NC(=O)C(C)C)n3)nc3c(Br)c(OC)ccc23)CN1C(=O)[C@@H](NC(=O)OC1CCCC1)C(C)(C)C)C(=O)O` [Compound (1) sodium salt], the “solubility (temperature dependence)” value is on record as “increases as the temperature decreases”.
